According to patent publication US6737383B1, “Herbicidal oxadiazolidines” (priority 1999, dated 2004):

Legend:
[1] = tested on: bedstraw; assay: Test B pre/postemergence bedstraw; type: in vivo, Galium aparine
Method in brief: (§1)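 Response is a visual 0-to-10 score relative to untreated plants, where 0 means no effect and 10 means complete control, taken twelve to sixteen days after application. Treatments went onto soil at planting and onto foliage of 1- to 4-leaf plants, using a surfactant-containing non-phytotoxic solvent.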

[2] = tested on: blackgrass; assay: Test B pre/postemergence blackgrass; type: in vivo, Alopecurus myosuroides
Method in brief: as §1

[3] = tested on: surinam grass; assay: Test B pre/postemergence surinam grass; type: in vivo, Brachiaria decumbens
Method in brief: as §1

[4] = tested on: cocklebur; assay: Test B pre/postemergence cocklebur; type: in vivo, Xanthium strumarium
Method in brief: as §1

[5] = tested on: corn; assay: Test B pre/postemergence corn; type: in vivo, Zea mays
Method in brief: as §1

[6] = tested on: crabgrass; assay: Test B pre/postemergence crabgrass; type: in vivo, Digitaria sanguinalis
Method in brief: as §1

[7] = tested on: giant foxtail; assay: Test B pre/postemergence giant foxtail; type: in vivo, Setaria faberii
Method in brief: as §1

[8] = tested on: morningglory; assay: Test B pre/postemergence morningglory; type: in vivo, Ipomoea hederacea
Method in brief: as §1

[9] = tested on: soybean; assay: Test B pre/postemergence soybean; type: in vivo, Glycine max
Method in brief: as §1

[10] = tested on: velvetleaf; assay: Test B pre/postemergence velvetleaf; type: in vivo, Abutilon theophrasti
Method in brief: as §1

[11] = tested on: wheat; assay: Test B pre/postemergence wheat; type: in vivo, Triticum aestivum
Method in brief: as §1

[12] = tested on: wild oat; assay: Test B pre/postemergence wild oat; type: in vivo, Avena fatua
Method in brief: as §1

[13] = tested on: purple nutsedge; assay: Test B pre/postemergence purple nutsedge; type: in vivo, Cyperus rotundus
Method in brief: as §1

[14] = tested on: rice; assay: Test B flood test rice; type: in vivo, Oryza sativa
Method in brief: (§2)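 Each value is a visual injury score relative to controls, with 10 meaning complete control and 0 no effect. Evaluation took place twelve to sixteen days after the 2-leaf-stage plants were treated and kept in the greenhouse.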

[15] = tested on: smallflower flatsedge; assay: Test B flood test smallflower flatsedge; type: in vivo, Cyperus difformis
Method in brief: as §2

[16] = tested on: duck salad; assay: Test B flood test duck salad; type: in vivo, Heteranthera limosa
Method in brief: as §2

[17] = tested on: bamyardgrass; assay: Test B flood test barnyardgrass; type: in vivo, Echinochloa crus-galli
Method in brief: as §2

[18] = Postemergence, Rate 250 g/ha, scale 0 to 10, 0 no effect, 10 complete control
[19] = Postemergence, Rate 1000 g/ha, scale 0 to 10 (0 no effect, 10 complete control)
[20] = Preemergence, Rate 125 g/ha, scale 0 to 10 (0 no effect, 10 complete control)
[21] = Preemergence, Rate 250 g/ha, scale of 0 to 10 where 0 is no effect and 10 is complete control
[22] = Preemergence, Rate 500 g/ha, scale 0 (no effect) to 10 (complete control)
[23] = Rate 125 g/ha, Postemergence, scale 0 to 10, 0 no effect, 10 complete control
[24] = Rate 500 g/ha, Postemergence, 0 to 10 scale (0 no effect, 10 complete control)
[25] = Rate 1000 g/ha, Preemergence, scale 0 to 10 (0 no effect, 10 complete control)
[26] = Rate 125 g/ha, Postemergence section (flood test species), scale 0 to 10, 0 no effect, 10 complete control
[27] = Rate 500 g/ha, Postemergence section of Table B, 0 to 10 scale (0 no effect, 10 complete control)
[28] = flood test, listed under Postemergence, Rate 250 g/ha, scale 0 to 10, 0 no effect, 10 complete control

Compound: CC(C)N(C(=O)n1oc(=O)n(-c2ccc(OC(F)(F)F)cc2)c1=O)C1=CCOCC1 [Compound 13]
- Bedstraw plant response rating [1, 18]: 0
- Bedstraw plant response rating [1, 19]: 0
- Plant response rating, Bedstraw [1, 20]: 0
- Plant response rating, Bedstraw [1, 21]: 0
- Bedstraw plant response rating [1, 22]: 0
- Bedstraw plant response rating [1, 23]: 0
- Bedstraw plant response rating [1, 24]: 0
- Plant response rating, Bedstraw [1, 25]: 3
- Blackgrass plant response rating [2, 18]: 3
- Blackgrass plant response rating [2, 19]: 8
- Plant response rating, Blackgrass [2, 20]: 0
- Plant response rating, Blackgrass [2, 21]: 0
- Blackgrass plant response rating [2, 22]: 6
- Blackgrass plant response rating [2, 23]: 0
- Blackgrass plant response rating [2, 24]: 4
- Plant response rating, Blackgrass [2, 25]: 9
- B. signalgrass plant response rating [3, 18]: 2
- B. signalgrass plant response rating [3, 19]: 6
- Plant response rating, B. signalgrass [3, 20]: 0
- Plant response rating, B. signalgrass [3, 21]: 2
- B. signalgrass plant response rating [3, 22]: 4
- B. signalgrass plant response rating [3, 23]: 0
- B. signalgrass plant response rating [3, 24]: 5
- Plant response rating, B. signalgrass [3, 25]: 8
- Cocklebur plant response rating [4, 18]: 0
- Cocklebur plant response rating [4, 19]: 0
- Plant response rating, Cocklebur [4, 20]: 0
- Plant response rating, Cocklebur [4, 21]: 0
- Cocklebur plant response rating [4, 22]: 0
- Cocklebur plant response rating [4, 23]: 0
- Cocklebur plant response rating [4, 24]: 0
- Corn plant response rating [5, 18]: 0
- Corn plant response rating [5, 19]: 0
- Plant response rating, Corn [5, 20]: 0
- Plant response rating, Corn [5, 21]: 0
- Corn plant response rating [5, 22]: 0
- Corn plant response rating [5, 23]: 0
- Corn plant response rating [5, 24]: 0
- Plant response rating, Corn [5, 25]: 0
- Crabgrass plant response rating [6, 18]: 5
- Crabgrass plant response rating [6, 19]: 9
- Plant response rating, Crabgrass [6, 20]: 2
- Plant response rating, Crabgrass [6, 21]: 5
- Crabgrass plant response rating [6, 22]: 5
- Crabgrass plant response rating [6, 23]: 1
- Crabgrass plant response rating [6, 24]: 9
- Plant response rating, Crabgrass [6, 25]: 8
- Giant foxtail plant response rating [7, 18]: 2
- Giant foxtail plant response rating [7, 19]: 7
- Plant response rating, Giant foxtail [7, 20]: 3
- Plant response rating, Giant foxtail [7, 21]: 8
- Giant foxtail plant response rating [7, 22]: 8
- Giant foxtail plant response rating [7, 23]: 0
- Giant foxtail plant response rating [7, 24]: 7
- Plant response rating, Giant foxtail [7, 25]: 8
- Morningglory plant response rating [8, 18]: 0
- Morningglory plant response rating [8, 19]: 0
- Plant response rating, Morningglory [8, 20]: 0
- Plant response rating, Morningglory [8, 21]: 0
- Morningglory plant response rating [8, 22]: 0
- Morningglory plant response rating [8, 23]: 0
- Morningglory plant response rating [8, 24]: 0
- Plant response rating, Morningglory [8, 25]: 2
- Soybean plant response rating [9, 18]: 2
- Soybean plant response rating [9, 19]: 3
- Plant response rating, Soybean [9, 20]: 0
- Plant response rating, Soybean [9, 21]: 0
- Soybean plant response rating [9, 22]: 0
- Soybean plant response rating [9, 23]: 1
- Plant response rating, Soybean [9, 25]: 0
- Velvetleaf plant response rating [10, 18]: 0
- Velvetleaf plant response rating [10, 19]: 0
- Plant response rating, Velvetleaf [10, 20]: 0
- Plant response rating, Velvetleaf [10, 21]: 0
- Velvetleaf plant response rating [10, 22]: 0
- Velvetleaf plant response rating [10, 23]: 0
- Plant response rating, Velvetleaf [10, 25]: 2
- Wheat plant response rating [11, 18]: 0
- Wheat plant response rating [11, 19]: 0
- Plant response rating, Wheat [11, 20]: 0
- Plant response rating, Wheat [11, 21]: 0
- Wheat plant response rating [11, 22]: 0
- Wheat plant response rating [11, 23]: 0
- Plant response rating, Wheat [11, 25]: 0
- Wild oats plant response rating [12, 18]: 0
- Wild oats plant response rating [12, 19]: 2
- Plant response rating, Wild oats [12, 20]: 0
- Plant response rating, Wild oats [12, 21]: 0
- Wild oats plant response rating [12, 22]: 2
- Wild oats plant response rating [12, 23]: 0
- Plant response rating, Wild oats [12, 25]: 7
- Nutsedge plant response rating [13, 18]: 0
- Nutsedge plant response rating [13, 19]: 0
- Plant response rating, Nutsedge [13, 20]: 0
- Plant response rating, Nutsedge [13, 21]: 0
- Nutsedge plant response rating [13, 22]: 0
- Nutsedge plant response rating [13, 23]: 0
- Nutsedge plant response rating [13, 24]: 0
- Plant response rating, Nutsedge [13, 25]: 0
- Rice plant response rating [14, 19]: 0
- Rice plant response rating [14, 26]: 0
- Rice plant response rating [14, 27]: 0
- Rice plant response rating [14, 28]: 0
- S. Flatsedge plant response rating [15, 19]: 0
- S. Flatsedge plant response rating [15, 26]: 0
- S. Flatsedge plant response rating [15, 28]: 0
- Ducksalad plant response rating [16, 19]: 0
- Ducksalad plant response rating [16, 26]: 0
- Ducksalad plant response rating [16, 27]: 0
- Ducksalad plant response rating [16, 28]: 0
- Barnyardgrass plant response rating [17, 19]: 0
- Barnyardgrass plant response rating [17, 26]: 0
- Barnyardgrass plant response rating [17, 27]: 0
- Barnyardgrass plant response rating [17, 28]: 0
